Results as given in PMC6965684, “Characterization of binding, functional activity, and contractile responses of the selective 5‐HT1F receptor agonist lasmiditan” (British Journal of Pharmacology, 2019).
Structures can show the parent of a compound that is named as a salt. Where two headings read alike, the source gives them in different places.

Assays:
[1] = biological target: T1, 5-HT1A receptor (Homo sapiens, UniProt P08908); test: biochemical; type: CHO-K1 membranes; design: radioligand competition binding on cell membranes, filtration and TopCount scintillation counting; conditions: radioligand displacement; read-out: 5‐HT1A / pIC50 (converted)
T1 construct: gene HTR1A; full-length human recombinant receptor in CHO-K1 cells (Ogeda); crude membranes
T1 sequence (P08908 1-422): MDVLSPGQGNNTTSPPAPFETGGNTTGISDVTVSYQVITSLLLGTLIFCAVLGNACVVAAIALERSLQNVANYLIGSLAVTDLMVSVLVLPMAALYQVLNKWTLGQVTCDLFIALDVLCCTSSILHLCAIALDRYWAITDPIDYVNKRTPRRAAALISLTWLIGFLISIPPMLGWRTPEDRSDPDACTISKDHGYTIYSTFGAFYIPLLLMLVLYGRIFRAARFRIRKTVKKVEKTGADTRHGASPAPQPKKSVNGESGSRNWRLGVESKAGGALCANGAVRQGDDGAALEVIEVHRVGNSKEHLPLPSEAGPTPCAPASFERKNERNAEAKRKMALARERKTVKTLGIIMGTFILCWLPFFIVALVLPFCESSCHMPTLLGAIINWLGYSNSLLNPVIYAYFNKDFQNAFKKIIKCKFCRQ
Experimental: (§1) Competition binding was performed in duplicate in the wells of a 96‐well plate containing binding buffer (optimized for each receptor), cell membrane extracts (approximately 20,000 cells distributed in the 96‐well plate), radiotracer, and test agonist. Non‐specific binding was determined by co‐incubation with 200‐fold excess of competitor. Cells were incubated and exposed to varying concentrations (1 pM to 10 μM) of a range of displacer agonists (see below). The samples were incubated in a final volume of 0.1 ml and then filtered over Unifilter plates (Perkin Elmer, Massachusetts, USA) pretreated for 2 hr to limit tracer non‐specific binding. Filters were washed five times with 0.5 ml of ice‐cold washing buffer (tris 50 mM pH 7.4) and 50 μl of Microscint 20 (Perkin Elmer) were added to each filter. The plates were incubated 15 min at room temperature on an orbital shaker and then counted with a TopCount™ (Perkin Elmer) for 1 min per well. […] Additionally, the reference values obtained were compared to historical values obtained from the same receptor and used to validate the experimental session. […] For the new assays developed in this study (i.e., 5‐ht1E receptor), the two independent pIC50 determined must be concordant with a 1 log unit interval for the assays to be validated.

[2] = biological target: T2, 5-HT2A receptor (Homo sapiens, UniProt P28223); test: biochemical; type: CHO-K1 membranes; design: radioligand competition binding on cell membranes, filtration and TopCount scintillation counting; conditions: for Ki: read-out: 5‐HT2A / pKi (converted)
T2 construct: gene HTR2A; full-length human recombinant receptor in CHO-K1 cells (Ogeda); crude membranes
T2 sequence (P28223 whole entry): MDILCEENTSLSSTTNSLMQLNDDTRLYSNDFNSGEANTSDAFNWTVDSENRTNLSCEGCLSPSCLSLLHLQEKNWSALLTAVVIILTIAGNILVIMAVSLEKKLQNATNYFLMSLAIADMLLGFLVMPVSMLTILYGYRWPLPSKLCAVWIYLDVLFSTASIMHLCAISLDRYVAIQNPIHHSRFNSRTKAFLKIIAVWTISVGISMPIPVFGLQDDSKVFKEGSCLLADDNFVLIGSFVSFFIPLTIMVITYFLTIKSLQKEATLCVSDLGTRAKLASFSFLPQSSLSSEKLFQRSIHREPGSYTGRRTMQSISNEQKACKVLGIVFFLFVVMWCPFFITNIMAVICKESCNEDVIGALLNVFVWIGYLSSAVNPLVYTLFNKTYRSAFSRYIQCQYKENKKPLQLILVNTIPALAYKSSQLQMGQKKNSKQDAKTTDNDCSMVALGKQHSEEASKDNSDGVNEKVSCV
Experimental: as §1, with “validated. […]” for “validated.”

[3] = biological target: T1, 5-HT1A receptor; test: cell-based; design: species or system CHO-K1; cAMP HTRF agonist assay, Gi coupled receptors, inhibition of stimulated cAMP; conditions: cAMP
Experimental: Concentration–response curves were performed in parallel with the agonists. […] After addition of the lysis buffer and 1‐hr incubation, cAMP concentrations were estimated according to the manufacturer specification with the HTRF kit (Cisbio International, Codelet, France). In brief, increasing concentrations of agonists were added to stably transfected cells in buffer in an Optiplate (PerkinElmer Life Sciences, Massachusetts, USA). The plates were incubated, and cells were then lysed by the addition of HTRF reagents (cAMP‐Cryptate and anti‐cAMP‐d2 reagents) and diluted in lysis buffer, followed by incubation at room temperature. […] Additionally, the reference values obtained were compared to historical values obtained from the same receptor and used to validate the experimental session. […] For the new assays developed in this study (i.e., 5‐ht1E receptor), the two independent pIC50 determined must be concordant with a 1 log unit interval for the assays to be validated.

[4] = biological target: T1, 5-HT1A receptor; test: biochemical; type: CHO-K1 membranes; design: GTPγS agonist functional assay; conditions: GTPγS
Excerpt: Additionally, the reference values obtained were compared to historical values obtained from the same receptor and used to validate the experimental session. […] For the new assays developed in this study (i.e., 5‐ht1E receptor), the two independent pIC50 determined must be concordant with a 1 log unit interval for the assays to be validated.

[5] = biological target: T2, 5-HT2A receptor; test: cell-based; design: species or system CHO-K1; IPOne HTRF agonist assay, IP1 accumulation in adherent transfected cells
Experimental: The assay was performed on adherent cells. For agonist testing, the medium was removed and 20 μl of assay buffer plus 20 μl of the studied agonist or the reference agonist were added in each well. The plate was incubated for 60 min at 37°C with 5% CO2. IP1‐D2 reagent and anti‐IP1 cryptate reagents were dispensed in the wells, and IP1 concentrations were then measured following the manufacturer instructions (IPOne HTRF assay kit; Cisbio International, Codolet, France). In brief, increasing concentrations of agonists were added to stably transfected cells in buffer in an Optiplate (PerkinElmer Life Sciences). The plates were incubated, and cells were then lysed by the addition of HTRF reagents (IP1‐D2 reagent and anti‐IP1 cryptate reagents) and diluted in lysis buffer, followed by incubation at room temperature. […] Additionally, the reference values obtained were compared to historical values obtained from the same receptor and used to validate the experimental session. […] For the new assays developed in this study (i.e., 5‐ht1E receptor), the two independent pIC50 determined must be concordant with a 1 log unit interval for the assays to be validated. […]

[6] = radioligand displacement, read-out: 5‐HT2A / pIC50 (converted)
[7] = IP, read-out: 5‐HT2A / IP (converted)

SMILES	IC50 [1]	IC50 [2, 6]	EC50 [3]	EC50 [4]	EC50 [5, 7]	IC50 [2]	EC50 [5]	Ki ([2]; radioligand displacement)
CNS(=O)(=O)Cc1ccc2[nH]cc(CCCN3CCN(c4ncncc4OC)CC3)c2c1 [Avitriptan fumarate]	0.0631 µM	7.76 µM	> 10 µM	0.646 µM	0.123 µM			
CN(C)[C@@H]1CCc2[nH]c3ccc(NC(=O)c4ccc(F)cc4)cc3c2C1 [LY344864 hydrochloride]	0.759 µM		> 10 µM	> 10 µM		7.76 µM	> 10 µM	
N#Cc1ccc(N2CCN(C(=O)COc3ccc4[nH]cc(CCN)c4c3)CC2)cc1 [Donitriptan hydrochloride]	0.038 µM	1.48 µM	1.15 µM	0.182 µM	0.00794 µM			
CNC1CCc2[nH]c3ccc(C(N)=O)cc3c2C1 (racemic) [Frovatriptan racemate]	0.148 µM	> 10 µM	> 10 µM	0.759 µM	> 10 µM			> 10 µM
CNS(=O)(=O)CCc1ccc2[nH]cc(C3CCN(C)CC3)c2c1 [Naratriptan hydrochloride]	0.049 µM	> 10 µM	> 10 µM	0.302 µM	> 10 µM			> 10 µM
CN1CCC[C@@H]1Cc1c[nH]c2ccc(CCS(=O)(=O)c3ccccc3)cc12 [Eletriptan hydrobromide]	0.00631 µM	3.8 µM	1.82 µM	0.417 µM	0.851 µM			
